# Earlier results, collected in patent US12060328B2, “Co-crystals or salts of psilocybin and methods of treatment therewith” (RESET PHARMACEUTICALS, INC., priority 2022, dated 2024).
# Details: cited from earlier work; for pKa (acidic) / pKa (basic): co-former property, Table 1
Compound,pKa (acidic),pKa (basic),other results
O=C(O)[C@H](O)[C@@H](O)[C@H](O)[C@H](O)CO [gluconic acid],3.6,–,–
NC(CO)(CO)CO [tromethamine],–,8.95,–
O=C1CC[C@@H](C(=O)O)N1 [L-pyroglutamic acid],3.48,–,–
"CN(C)CCc1c[nH]c2cccc(OP(=O)(O)O)c12 [psilocybin, [3-(2-dimethylaminoethyl)-1H-indol-4-yl]dihydrogen phosphate]",–,–,"pKa3 (tertiary amine) (estimated) (reported value, estimated): 10.4; pKa1 (1st phosphate oxygen) (reported value): 1.3; pKa2 (2nd phosphate oxygen) (reported value): 6.5"
"CCCOC(=O)c1cc(O)c(O)c(O)c1 [propyl 3,4,5-trihydroxybenzoate]",7.94,–,–
OC[C@@H](O)[C@@H](O)CO [meso-erythritol],13.90,–,–
NC(=O)c1ccncc1 [isonicotinamide],–,3.61,–
Cn1c(=O)c2[nH]cnc2n(C)c1=O [theophylline],8.81,–,–
NC(CS)C(=O)O (racemic) [DL-cysteine],1.71,8.33,–
NC(N)=O [urea],–,0.10,–
OC[C@@H](O)[C@@H](O)[C@H](O)[C@H](O)CO [D-mannitol],13.50,–,–
